Like-named read-outs stand apart in the source and are kept apart here. One block for each molecule: values may come before it.
Assays:
[1] = Moisture absorption test; type: physicochemical
[2] = 40° C. and 75% relative humidity
Source text: Accordingly, there have been attempts to convert bepotastine to an acid salt form having a high optical purity which is resistant to racemization.

[3] = Effect of severe storage condition on the optical purity (chiral HPLC); type: physicochemical; settings: for Change of optical purity during the storage / Optical purity (%) After standing at 60° C. and 75% R.H. for 4 weeks in closed condition / Optical purity (%) After standing at 60° C. and 75% R.H. for 4 weeks in open condition: 60° C., 75% R.H., 4 weeks
Procedure: For the measurement of the optical purity of the bepotastine, chiral HPLC was conducted under following conditions and the optical purity was calculated using the Equation 1.
• Detector: Ultraviolet ray spectrophotometer (detection wavelength: 225 nm) • Column: YMC Chiral β-CDs (4.6×250 mm, 5 μm) • Mobile phase: methanol/ammonium acetate buffer solution=45/55(v/v, %) • Flow rate: 0.8 ml/min
Optical Purity (%)=Ps/(Ps+Pr)×100 Equation 1
wherein • Ps is the peak area of bepotastine, and • Pr is the peak area of R-enantiomer of bepotastine.
The optical purities of respective bepotastine salts were determined.

[4] = Solubility test (saturation solubility); settings: for Saturation solubility (mg/ml) pH 1.2 buffer solution: pH 1.2 buffer solution (simulates gastric juice); for Saturation solubility (mg/ml) pH 6.8 buffer solution: pH 6.8 buffer solution (simulates intestinal juice)
[5] = Hygroscopicity of bepotastine salts (Table 1); type: physicochemical
Source text: Further, when the crystalline bepotastine metal salt hydrate of formula (I) of the present invention is stored under an extremely high-moisture condition, its moisture content don't increases substantially, thus, it is non-hygroscopic. In contrast, an alkaline metal salt of bepotastine, e.g., lithium salt, sodium salt, potassium salt, magnesium salt or barium salt of bepotastine; a transition metal salt of bepotastine, e.g., zinc salt, aluminum salt, bismuth salt, or iron salt of bepotastine; an organic amine salt of bepotastine, e.g., ammonium salt, ethyl amine salt, dimethyl amine salt, triethylamine salt or N-methyl glucamine salt of bepotastine; and an amino acidic salt of the bepotastine, e.g., arginine salt, lysine salt, or histidine salt of bepotastine, are mostly obtained as non-crystalline forms, and, even when they are obtained as crystalline forms, they are hygroscopic.

Molecule: O=C(O)CCCN1CCC(O[C@@H](c2ccc(Cl)cc2)c2ccccn2)CC1.O=S(=O)(O)c1ccccc1 [Benzenesulfonic acid salt, Bepotastine Benzenesulfonic Acid Salt]
- Water contents (%) Day 1 ([1]; 25° C., 75% R.H.): 0.6%
- Water contents (%) Day 3 ([1]; 25° C., 75% R.H.): 0.6%
- Water contents (%) Day 7 ([1]; 25° C., 75% R.H.): 0.7%
- Water contents (%) Day 15 ([1]; 25° C., 75% R.H.): 0.6%
- Water contents (%) initial ([1]; 25° C., 75% R.H.): 0.4%
- Water contents (%) Day 1 ([1]; 40° C., 75% R.H.): 0.7%
- Water contents (%) Day 3 ([1]; 40° C., 75% R.H.): 0.8%
- Water contents (%) Day 7 ([1]; 40° C., 75% R.H.): 0.8%
- Water contents (%) Day 15 ([1]; 40° C., 75% R.H.): 0.9%
- Water contents (%) initial ([1]; 40° C., 75% R.H.): 0.4%
- Water contents (%) Day 1 ([1]; 40° C., 90% R.H.): 2.4%
- Water contents (%) Day 3 ([1]; 40° C., 90% R.H.): 2.5%
- Water contents (%) Day 7 ([1]; 40° C., 90% R.H.): 2.4%
- Water contents (%) Day 15 ([1]; 40° C., 90% R.H.): 2.5%
- Water contents (%) initial ([1]; 40° C., 90% R.H.): 0.4%
- Racemization under high moisture condition [2]: slow racemization
- Change of optical purity during the storage [3]: decreases significantly
- Optical purity (%) After standing at 60° C. and 75% R.H. for 4 weeks in closed condition [3]: 97.3%
- Optical purity (%) After standing at 60° C. and 75% R.H. for 4 weeks in open condition [3]: 95.5%
- Optical purity (%) Before the test [3]: 99.9%
- Saturation solubility (mg/ml) pH 1.2 buffer solution [4]: 45.0 mg/ml
- Saturation solubility (mg/ml) pH 6.8 buffer solution [4]: 28.1 mg/ml

Molecule: NCCCC[C@H](N)C(=O)O [L-Lysine]
- Hygroscopicity [5]: Hygroscopic

Molecule: O=C(O)CCCN1CCC(O[C@@H](c2ccc(Cl)cc2)c2ccccn2)CC1 [Sodium]
- Hygroscopicity [5]: Hygroscopic
- Hygroscopicity ([5]; listed as sodium salt of bepotastine): highly hygroscopic

Molecule: O=C(O)CCCN1CCC(OC(c2ccc(Cl)cc2)c2ccccn2)CC1.O=C(O)c1ccccc1 (stereo not shown) [bepotastine benzoic acid salt]
- Racemization under high moisture condition [2]: slow racemization

Molecule: L-Arginine
- Hygroscopicity [5]: Hygroscopic

Next, values leading:

- Hygroscopicity (conclusion of moisture absorption test) [1]: essentially non-hygroscopic
- Water contents (%) Day 1 ([1]; 25° C., 75% R.H.): 4.3%
- Water contents (%) Day 3 ([1]; 25° C., 75% R.H.): 4.3%
- Water contents (%) Day 7 ([1]; 25° C., 75% R.H.): 4.4%
- Water contents (%) Day 15 ([1]; 25° C., 75% R.H.): 4.4%
- Water contents (%) initial ([1]; 25° C., 75% R.H.): 4.3%
- Water contents (%) Day 1 ([1]; 40° C., 75% R.H.): 4.4%
- Water contents (%) Day 3 ([1]; 40° C., 75% R.H.): 4.6%
- Water contents (%) Day 7 ([1]; 40° C., 75% R.H.): 4.5%
- Water contents (%) Day 15 ([1]; 40° C., 75% R.H.): 4.6%
- Water contents (%) initial ([1]; 40° C., 75% R.H.): 4.3%
- Increment of water content ([1]; 40° C., 90% R.H., 15 days): less than 0.7%
- Water contents (%) Day 1 ([1]; 40° C., 90% R.H.): 4.7%
- Water contents (%) Day 3 ([1]; 40° C., 90% R.H.): 4.9%
- Water contents (%) Day 7 ([1]; 40° C., 90% R.H.): 4.9%
- Water contents (%) Day 15 ([1]; 40° C., 90% R.H.): 5.0%
- Water contents (%) initial ([1]; 40° C., 90% R.H.): 4.3%
- Change of optical purity during the storage [3]: remained unchanged
- Optical purity (%) After standing at 60° C. and 75% R.H. for 4 weeks in closed condition [3]: 99.9%
- Optical purity (%) After standing at 60° C. and 75% R.H. for 4 weeks in open condition [3]: 99.9%
- Optical purity (%) Before the test [3]: 99.9%
- Solubility compared with bepotastine benzenesulfonic acid salt ([4]; pH 1.2): similar
- Saturation solubility (mg/ml) pH 1.2 buffer solution [4]: 43.2 mg/ml
- Solubility relative to bepotastine benzenesulfonic acid salt ([4]; pH 6.8): at least 2 times
- Saturation solubility (mg/ml) pH 6.8 buffer solution [4]: 61.6 mg/ml
Molecule: O.O.O=C([O-])CCCN1CCC(O[C@@H](c2ccc(Cl)cc2)c2ccccn2)CC1.O=C([O-])CCCN1CCC(O[C@@H](c2ccc(Cl)cc2)c2ccccn2)CC1.[Ca+2] [Calcium salt hydrate, Bepotastine Calcium Salt Dihydrate]

- Hygroscopicity [5]: Hygroscopic
Molecule: [Mg] [Magnesium]

- Hygroscopicity ([5]; listed as potassium salt of bepotastine): highly hygroscopic
Molecule: O=C(O)CCCN1CCC(O[C@@H](c2ccc(Cl)cc2)c2ccccn2)CC1 [Potassium]

- Hygroscopicity [5]: Hygroscopic
Molecule: Zinc
